Where a name gives a salt, the structure may show the parent alone.
Assays:
[1] = tested on: C57BL/6J male mice; experiment: Subcutaneous administration of tetracycline hydrochloride for 10 days to mice fed with HFD for 8 weeks (Example 2); assay type: in vivo; details: for histopathological test of liver: mouse, in vivo, sc
Source text: (§1) In the following Examples and Comparative examples, as an animal for producing a pathologic model animal, C57BL/6J male mice (Nippon CLEA, Inc.) were used. Further, as a high-fat diet (hereinafter referred to as “HFD”), D12492 (fat content: 60 kcal%) (Research Diet Inc.) was used. As a control diet, CE-2 (Nippon CLEA, Inc.) to be used for normal rearing of mice was used. As a tetracycline antibiotic, tetracycline hydrochloride (Sigma Inc.) was used. The administration of tetracycline hydrochloride was carried out by injection of a solution of 0, 10, 30 or 100 mg/10 mL of tetracycline hydrochloride prepared with a 0.5% physiological saline solution. Here, the “solution of 0 mg/10 mL of tetracycline hydrochloride” means a 0.5% physiological saline solution.
20 mice (7 weeks of age) were fed ad libitum with HFD for 8 weeks. Then, the mice were divided into 4 groups (5 mice×4 groups) in such a manner that the body weight and the body fat percentage were equal in the respective groups, and subcutaneously administered with tetracycline hydrochloride at a dose of 0, 30, 60 and 100 mg/kg/day for 10 days (hereinafter, the groups administered with tetracycline hydrochloride at a dose of 0, 30, 60 and 100 mg/kg/day are referred to as “TC 0 group”, “TC 30 group”, “TC 60 group” and “TC 100 group”, respectively). The mice were fed ad libitum with HFD also during the period of administering tetracycline hydrochloride.
The body weight of mice was measured on 3 days before initiation of administration of tetracycline hydrochloride and everyday from the next day until day 11 after initiation of administration thereof. FIG. 12 is a line graph showing the change in the body weight of mice subcutaneously administered with tetracycline hydrochloride for 10 days after feeding them with HFD for 8 weeks. […] Incidentally, in FIG. 12, the term “days” represents the number of days elapsed after initiation of administration of tetracycline hydrochloride.
Blood collection and dissection were carried out in the same manner as in Example 1.
The plasma ALT level, plasma AST level, plasma insulin level and plasma glucose level were measured in the same manner as in Example 1. FIG. 13 is a bar graph showing the plasma ALT level in mice subcutaneously administered with tetracycline hydrochloride for 10 days after feeding them with HFD for 8 weeks. FIG. 14 is a bar graph showing the plasma AST level in mice subcutaneously administered with tetracycline hydrochloride for 10 days after feeding them with HFD for 8 weeks. […] FIG. 15 is a bar graph showing the plasma insulin level in mice subcutaneously administered with tetracycline hydrochloride for 10 days after feeding them with HFD for 8 weeks. […] FIG. 16 is a bar graph showing the plasma glucose level in mice subcutaneously administered with tetracycline hydrochloride for 10 days after feeding them with HFD for 8 weeks.
The hepatic TG level was measured in the same manner as in Example 1. FIG. 17 is a bar graph showing the hepatic TG level in mice subcutaneously administered with tetracycline hydrochloride for 10 days after feeding them with HFD for 8 weeks.
Measurement of Hepatic TNF-α mRNA level and hepatic IL-1β mRNA level The hepatic TNF-α mRNA level and hepatic IL-1β mRNA level were measured in the same manner as in Example 1. FIG. 18 is a bar graph showing the hepatic TNF-α mRNA level in mice subcutaneously administered with tetracycline hydrochloride for 10 days after feeding them with HFD for 8 weeks. FIG. 19 is a bar graph showing the hepatic IL-1β mRNA level in mice subcutaneously administered with tetracycline hydrochloride for 10 days after feeding them with HFD for 8 weeks.
A histopathological test of liver was carried out in the same manner as in Example 1.

[2] = tested on: C57BL/6J male mice; experiment: Intraperitoneal administration of tetracycline hydrochloride for 10 days to mice fed with HFD for 8 weeks (Example 1); assay type: in vivo
Source text: as §1
29 mice (6 weeks of age) were divided into a group of 15 mice fed with HFD (hereinafter referred to as an “HFD group”) and a group of 14 mice fed with a control diet (hereinafter referred to as a “control group”). The following experiments related to the HFD group (15 mice) and the control group (14 mice) were assigned to Example 1 and Comparative example 1, respectively.
Feeding of HFD or control diet and intraperitoneal administration of tetracycline hydrochloride First, the mice in the HFD group and the control group were fed ad libitum with HFD and the control diet for 8 weeks, respectively. Then, the mice in the HFD group and the control group were divided into 3 groups, respectively, in such a manner that the body weight and the body fat percentage were equal in the respective groups, thereby to form 3 groups in the HFD group (5 mice×3 groups), and 3 groups in the control group (5 mice×2 groups and 4 mice×1 group). Then, tetracycline hydrochloride was intraperitoneally administered to both the HFD group and the control group at a dose of 0, 10 and 30 mg/kg/day for 10 days (hereinafter, the groups administered with tetracycline hydrochloride at a dose of 0, 10 and 30 mg/kg/day are referred to as “TC 0 group”, “TC 10 group” and “TC 30 group”, respectively). The mice were fed ad libitum with HFD or the control diet also during the period of administering tetracycline hydrochloride.
The body weight of mice was measured on 4 days before initiation of administration of tetracycline hydrochloride and on day 1, 3, 5, 7, 10 and 11 after initiation of administration thereof. FIG. 1 is a line graph showing the change in the body weight of mice intraperitoneally administered with tetracycline hydrochloride for 10 days after feeding them with HFD or the control diet for 8 weeks. […] Incidentally, in FIG. 1, the term “days” represents the number of days elapsed after initiation of administration of tetracycline hydrochloride.
On the next day after completion of administration of tetracycline hydrochloride (on day 11 after initiation of administration), the mice were anesthetized by isoflurane inhalation. After it was Confirmed that the mice lost pain sensation by pinching the tail with forceps, the mice underwent laparotomy and the blood was collected from the abdominal vena cava with a syringe containing heparin. The collected blood was centrifuged at 4° C. for 10 minutes at 7500 rpm thereby to separate plasma. The obtained plasma was cryopreserved. […]
By using the cryopreserved plasma, the plasma ALT level, plasma AST level and plasma glucose level were measured using Hitachi autoanalyzer 7070 (Hitachi Hi Technologies), and the plasma insulin level was measured using an insulin assay kit (Seikagaku Corporation). […]

[3] = HFD 8 weeks, s.c. 30 mg/kg/day for 10 days, vs normal mice
[4] = HFD 8 weeks, s.c. 60 mg/kg/day for 10 days, vs normal mice
[5] = HFD 8 weeks, s.c. 100 mg/kg/day for 10 days, vs normal mice
[6] = HFD 8 weeks, i.p. 30 mg/kg/day for 10 days, vs normal mice
[7] = HFD group (i.p. 0, 10, 30 mg/kg/day for 10 days), vs normal mice

Question: `CN(C)[C@@H]1C(O)=C(C(N)=O)C(=O)[C@@]2(O)C(O)=C3C(=O)c4c(O)cccc4[C@@](C)(O)[C@H]3C[C@@H]12` [tetracycline hydrochloride] was tested. Which “plasma ALT level” value [1, 3] did it give?
Answer: significantly higher

Question: What about the “plasma AST level” value [1, 3] of the same molecule?
Answer: significantly higher

Question: And the plasma insulin level [1, 3]?
Answer: higher

Question: What about the “plasma ALT level” value [1, 4] of the same molecule?
Answer: significantly higher

Question: What about the “plasma AST level” value [1, 4] of the same molecule?
Answer: significantly higher

Question: And the plasma insulin level [1, 4]?
Answer: higher

Question: What about the “plasma ALT level” value [1, 5] of the same molecule?
Answer: significantly higher

Question: And the “plasma AST level” value [1, 5]?
Answer: significantly higher

Question: What about the plasma insulin level [1, 5] of the same molecule?
Answer: equivalent

Question: And the plasma glucose level ([1]; HFD 8 weeks, s.c. any group (0, 30, 60, 100 mg/kg/day) for 10 days, vs normal mice)?
Answer: higher

Question: What about the “histopathological test of liver” value ([1]; 30 mg/kg/day) of the same molecule?
Answer: presence of fatty liver and the invasion of inflammatory cells were observed

Question: What about the “histopathological test of liver” value ([1]; 60 mg/kg/day) of the same molecule?
Answer: presence of fatty liver and the invasion of inflammatory cells were observed

Question: What about the “histopathological test of liver” value ([1]; 100 mg/kg/day) of the same molecule?
Answer: presence of fatty liver and the invasion of inflammatory cells were observed

Question: And the “plasma ALT level” value [2, 6]?
Answer: significantly higher

Question: What about the “plasma AST level” value [2, 6] of the same molecule?
Answer: significantly higher

Question: What about the plasma glucose level [2, 7] of the same molecule?
Answer: equivalent to or higher

Question: What about the plasma insulin level [2, 7] of the same molecule?
Answer: equivalent to or higher

Question: And the “histopathological test of liver” value ([2]; mouse, in vivo, ip, 30 mg/kg/day)?
Answer: presence of fatty liver and the invasion of inflammatory cells were observed

Reference: patent US20080118436A1, “Pathological Animal Model For Non-Alcoholic Fatty Hepatitis” (priority 2004, published 2008)
